Data reported in patent US20260262643A1, “HERBICIDAL BENZOXAZINES” (FMC CORPORATION, priority 2022, published 2026).

Experiments:
green foxtail [1] = assay: Test C preemergence; format: in vivo, Setaria viridis
Outline: (§1)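 Visual injury ratings on a 0–100 scale (100 = complete control) were made against untreated controls 10 days after treatment in the greenhouse. Compounds, formulated with surfactant in non-phytotoxic solvent, were sprayed on soil preemergence or onto one- to two-leaf plants 2–10 cm tall postemergence.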

ryegrass, Italian [2] = assay: Test C postemergence; format: in vivo, Lolium multiflorum; settings: 10 days, 0 to 100 scale (0 no effect, 100 complete control)
Outline: as §1

soybean [3] = assay: Test C preemergence; format: in vivo, Glycine max
Outline: as §1

ragweed [4] = assay: Test C preemergence; format: in vivo, Ambrosia artemisiifolia
Outline: as §1

pigweed, palmer [5] = assay: Test C postemergence; format: in vivo, Amaranthus palmeri; settings: 10 days, 0 to 100 scale (0 no effect, 100 complete control)
Outline: as §1

blackgrass [6] = assay: Test C postemergence; format: in vivo, Alopecurus myosuroides; settings: Alopecurus myosuroides, post-emergence, 240 h, 10 days, 0 to 100 scale (0 no effect, 100 complete control), read-out: Plant response rating, Blackgrass
Outline: as §1

kochia [7] = assay: Test C postemergence; format: in vivo, Bassia scoparia; settings: 10 days, 0 to 100 scale (0 no effect, 100 complete control)
Outline: as §1

barnyardgrass [8] = assay: Test C postemergence; format: in vivo, Echinochloa crusgalli; settings: 10 days, 0 to 100 scale (0 no effect, 100 complete control)
Outline: as §1

sedge, umbrella = assay: Test D flooded paddy test; format: in vivo, Cyperus difformis; settings: 250 g ai/ha, applied to paddy water, visual rating after 13 to 14 days, scale 0 to 100 (0 no effect, 100 complete control)
Outline: (§2)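 Rating scale 0–100 (0 no effect, 100 complete control), visual, versus controls. Readout at 13–14 days after in-water application to 2-leaf plants in pots flooded 3 cm deep.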

galium = assay: Test C postemergence; format: in vivo, Galium aparine; settings: 10 days, 0 to 100 scale (0 no effect, 100 complete control)
Outline: as §1

corn [9] = assay: Test C preemergence; format: in vivo, Zea mays
Outline: as §1

pigweed, palmer [10] = assay: Test C preemergence; format: in vivo, Amaranthus palmeri
Outline: as §1

soybean [11] = assay: Test C postemergence; format: in vivo, Glycine max; settings: 10 days, 0 to 100 scale (0 no effect, 100 complete control)
Outline: as §1

ducksalad = assay: Test D flooded paddy test; format: in vivo, Heteranthera limosa; settings: 250 g ai/ha, applied to paddy water, visual rating after 13 to 14 days, scale 0 to 100 (0 no effect, 100 complete control)
Outline: as §2

rice = assay: Test D flooded paddy test; format: in vivo, Oryza sativa; settings: 250 g ai/ha, applied to paddy water, visual rating after 13 to 14 days, scale 0 to 100 (0 no effect, 100 complete control)
Outline: as §2

corn [12] = assay: Test C postemergence; format: in vivo, Zea mays; settings: Zea mays, post-emergence, 240 h, 10 days, 0 to 100 scale (0 no effect, 100 complete control)
Outline: as §1

horseweed = assay: Test C postemergence; format: in vivo, Erigeron canadensis; settings: 10 days, 0 to 100 scale (0 no effect, 100 complete control)
Outline: as §1

blackgrass [13] = assay: Test C preemergence; format: in vivo, Alopecurus myosuroides
Outline: as §1

wheat [14] = assay: Test C postemergence; format: in vivo, Triticum aestivum; settings: 10 days, 0 to 100 scale (0 no effect, 100 complete control)
Outline: as §1

kochia [15] = assay: Test C preemergence; format: in vivo, Bassia scoparia
Outline: as §1

green foxtail [16] = assay: Test C postemergence; format: in vivo, Setaria viridis; settings: 10 days, 0 to 100 scale (0 no effect, 100 complete control)
Outline: as §1

oat, wild [17] = assay: Test C postemergence; format: in vivo, Avena fatua; settings: 10 days, 0 to 100 scale (0 no effect, 100 complete control)
Outline: as §1

barnyardgrass [18] = assay: Test D flooded paddy test; format: in vivo, Echinochloa crus-galli; settings: 250 g ai/ha, applied to paddy water, visual rating after 13 to 14 days, scale 0 to 100 (0 no effect, 100 complete control)
Outline: as §2

ragweed [19] = assay: Test C postemergence; format: in vivo, Ambrosia artemisiifolia; settings: 10 days, 0 to 100 scale (0 no effect, 100 complete control)
Outline: as §1

ryegrass, Italian [20] = assay: Test C preemergence; format: in vivo, Lolium multiflorum
Outline: as §1

barnyardgrass [21] = assay: Test C preemergence; format: in vivo, Echinochloa crusgalli
Outline: as §1

oat, wild [22] = assay: Test C preemergence; format: in vivo, Avena fatua
Outline: as §1

wheat [23] = assay: Test C preemergence; format: in vivo, Triticum aestivum
Outline: as §1

[24] = 500 g ai/ha, preemergence, 0 to 100 scale (0 no effect, 100 complete control)
[25] = Preemergence, 125 g ai/ha, 0 to 100 scale, 0 no effect, 100 complete control

## CCOC[C@H]1CN(C(=O)c2cc(-n3cnc(C(C)C)n3)ccc2C)c2cccc(Cl)c2O1 [Compound 340, [(2R)-8-chloro-2-(ethoxymethyl)-2,3-dihydro-1,4-benzoxazin-4-yl]-[5-(3-isopropyl-1,2,4-triazol-1-yl)-2-methyl-phenyl]methanone]
Green foxtail [1]; [24]
  Foxtail, Green plant response rating: 100
Green foxtail [1]; [25]
  Plant response rating, Foxtail, Green: 100
ryegrass, Italian [2]; 500 g ai/ha, postemergence
  Plant response rating, Ryegrass, Italian: 80
ryegrass, Italian [2]; Postemergence, 125 g ai/ha
  Plant response rating, Ryegrass, Italian: 60
Soybean [3]; [24]
  Soybean plant response rating: 100
Soybean [3]; [25]
  Plant response rating, Soybean: 30
Ragweed [4]; [24]
  Ragweed plant response rating: 100
Ragweed [4]; [25]
  Plant response rating, Ragweed: 80
pigweed, palmer [5]; 500 g ai/ha, postemergence
  Plant response rating, Pigweed, Palmer: 100
pigweed, palmer [5]; Postemergence, 125 g ai/ha
  Plant response rating, Pigweed, Palmer: 80
Blackgrass [6]; 500 g ai/ha, postemergence
  pest or weed control at 500 g/ha: 60%
Blackgrass [6]; Postemergence, 125 g ai/ha
  pest or weed control at 125 g/ha: 20%
Kochia [7]; 500 g ai/ha, postemergence
  Plant response rating, Kochia: 90
Kochia [7]; Postemergence, 125 g ai/ha
  Plant response rating, Kochia: 90
Barnyardgrass [8]; 500 g ai/ha, postemergence
  Plant response rating, Barnyardgrass: 60
Barnyardgrass [8]; Postemergence, 125 g ai/ha
  Plant response rating, Barnyardgrass: 50
sedge, umbrella
  Plant response rating, Sedge, Umbrella (Flood): 60
galium; 500 g ai/ha, postemergence
  Plant response rating, Galium: 100
galium; Postemergence, 125 g ai/ha
  Plant response rating, Galium: 90
Corn [9]; [24]
  Corn plant response rating: 40
Corn [9]; [25]
  Plant response rating, Corn: 20
pigweed, palmer [10]; [24]
  Pigweed, Palmer plant response rating: 100
pigweed, palmer [10]; [25]
  Plant response rating, Pigweed, Palmer: 100
Soybean [11]; 500 g ai/ha, postemergence
  Plant response rating, Soybean: 100
Soybean [11]; Postemergence, 125 g ai/ha
  Plant response rating, Soybean: 100
ducksalad
  Plant response rating, Ducksalad (Flood): 75
rice
  Plant response rating, Rice (Flood): 0
Corn [12]; 500 g ai/ha, postemergence
  Corn plant response rating (crop injury, 0 = no effect, 100 = complete kill) at 500 g/ha: 60%
Corn [12]; Postemergence, 125 g ai/ha
  Corn plant response rating (crop injury, 0 = no effect, 100 = complete kill) at 125 g/ha: 60%
horseweed; 500 g ai/ha, postemergence
  Plant response rating, Horseweed: 60
horseweed; Postemergence, 125 g ai/ha
  Plant response rating, Horseweed: 30
Blackgrass [13]; [24]
  Blackgrass plant response rating: 90
Blackgrass [13]; [25]
  Plant response rating, Blackgrass: 50
Wheat [14]; 500 g ai/ha, postemergence
  Plant response rating, Wheat: 30
Wheat [14]; Postemergence, 125 g ai/ha
  Plant response rating, Wheat: 10
Kochia [15]; [24]
  Kochia plant response rating: 100
Kochia [15]; [25]
  Plant response rating, Kochia: 90
Green foxtail [16]; 500 g ai/ha, postemergence
  Plant response rating, Foxtail, Green: 70
Green foxtail [16]; Postemergence, 125 g ai/ha
  Plant response rating, Foxtail, Green: 30
oat, wild [17]; 500 g ai/ha, postemergence
  Plant response rating, Oat, Wild: 20
oat, wild [17]; Postemergence, 125 g ai/ha
  Plant response rating, Oat, Wild: 10
Barnyardgrass [18]
  Plant response rating, Barnyardgrass (Flood): 0
Ragweed [19]; 500 g ai/ha, postemergence
  Plant response rating, Ragweed: 80
Ragweed [19]; Postemergence, 125 g ai/ha
  Plant response rating, Ragweed: 70
ryegrass, Italian [20]; [24]
  Ryegrass, Italian plant response rating: 100
ryegrass, Italian [20]; [25]
  Plant response rating, Ryegrass, Italian: 90
Barnyardgrass [21]; [24]
  Barnyardgrass plant response rating: 100
Barnyardgrass [21]; [25]
  Plant response rating, Barnyardgrass: 90
oat, wild [22]; [24]
  Oat, Wild plant response rating: 80
oat, wild [22]; [25]
  Plant response rating, Oat, Wild: 70
Wheat [23]; [24]
  Wheat plant response rating: 80
Wheat [23]; [25]
  Plant response rating, Wheat: 50
